Laboratory results published in patent US20090104154A1, “Composition and method for killing of tumours” (COMMONWEALTH SCIENTIFIC AND INDUSTRIAL RESEARCH ORGANISATION, priority 2002, published 2009).

How the values were obtained:
[1] = cited from earlier work
PC3 tumours = test: GDEPT on subcutaneous human PC3 tumours in nude mice; format: in vivo, mouse
Description: The ability of the PNP-based GDEPT system to suppress tumour growth in vivo was tested using subcutaneous human PC3 tumours grown in nude mice. Once the tumours were established (see example 1), on day 0 two groups of mice received one intratumoural injection of 1×10^10 VP of OAdV220. Two further groups received virus storage buffer only. Following this treatment all animals in one of the virus groups and all animals in one of the no-virus groups received a daily intraperitoneal (ip) injection of fludarabine (75 mg/m^2/day) for the next five days. Animal weights and tumour volumes were recorded twice weekly. The vector only group was compared to the nil virus, nil prodrug group. The group that received vector plus fludarabine was compared with the group that received fludarabine only. The OAdV220 vector alone caused a 30% reduction in tumour growth. However, the overall tumour growth suppression was increased to 71% when virus was used in conjunction with Fludarabine.
The cut off for response was arbitrarily taken as a tumour volume of 600 mm^3, half the maximum tumour volume (1200 mm^3) allowed before mice had to be culled because of tumour burden. By day 25, 13 of 14 tumours treated with OAdV220 plus fludarabine were in the responder category compared with 6 of 9 that received fludarabine only, and 9 of 12 which received virus only. […]

RM-1 tumours = test: GDEPT on subcutaneous tumours from RM-1 cells pre-transduced in vitro; format: in vivo, mouse; conditions: day 15; Fludarabine alone 600 mg/m^2/day compared with nil treatment
Description: RM-1 cells (3×10^7) were transduced in culture with 1×10^3 or 1×10^2 VP/cell of OAdV220 or mock transduced with virus dilution buffer on day −1. On day 0, 12 mice/group were subcutaneously injected with 2.5×10^5 virus- or mock-transduced cells. Fludarabine was then administered from days 1-5 at 600 mg/m^2/day. Tumour volume and animal survival were monitored three times per week. A line of best fit was generated for each treatment curve and the ability to suppress tumour growth or increase animal survival was determined from the days taken to reach the midpoint of tumour growth or animal survival respectively.

[2] = tested on: intraprostatic RM-1 tumours; test: GDEPT ± lipid on intraprostatic RM-1 tumours; format: in vivo, mouse; conditions: day 18; relative to the equivalent non-fludarabine treated tumours; fludarabine 600 mg/m^2/day ip
Description: In order to mimic clinical prostate cancer in an immunocompetent animal model, on day 1 RM-1 tumours were established in the prostate of C57BL/6 mice by intraprostatic injection of 5×10^3 RM-1 cells (˜50 μl cell suspension) per mouse. On day 4, these mice received an intraprostatic injection of 1×10^10 VP/tumour of OAdV220, either alone or formulated with 10 μM CS87 (see groups below). Fludarabine was then administered ip at 600 mg/m^2/day to appropriate groups from days 5-10. On day 6, pseudometastases were induced in the lungs by intravenous injection of 2.5×10^5 RM-1 cells (˜50 μl cell suspension) per mouse. Due to the limitations of surgery only 30 intraprostate injections can be performed per day. The experiment was therefore set up on 4 different days, although care was taken not to upset the timing of the experiment. The mice were weighed twice weekly, and sacrificed on day 18. Tissues were harvested for analysis (prostate volume, prostate weights).
Treatment groups were as follows:
Group A OAdV220 alone±fludarabine
Group B Nil treatment (storage buffer)±fludarabine
Group C OAdV220 plus […] CS87±fludarabine
Group D 10 μM CS87 alone±fludarabine

| SMILES | potency as a growth inhibitor relative to 6 MP [1] [fold] | responding tumours (tumour volume below 600 mm^3) (PC3 tumours; day 25) | responding tumours (tumour volume below 600 mm^3) (PC3 tumours; day 53) | reduction in mean tumour volume (RM-1 tumours) [%] | decrease in tumour volume [2] [%] | decrease in tumour weight [2] [%] |
| --- | --- | --- | --- | --- | --- | --- |
| Nc1nc(F)nc2nc[nH]c12 [2FA, 2-fluoroadenine] | ~100 | – | – | – | – | – |
| Nc1nc(F)nc2c1ncn2[C@@H]1O[C@H](CO)[C@@H](O)[C@@H]1O [Fludarabine, fludarabine] | – | 6 of 9 | 0/5 | 17 | 12 | 17 |
